The values that follow come from patent publication US7071165B2, “LHRH antagonist peptides” (Indiana University Research and Technology Corporation, priority 1995, dated 2006).

In the first test the test system is ovulation in female rats. The test can be described thus: Anti-ovulatory activity (AOA) in vivo assay in rats. More on the design: species or system rat. As to conditions: dose 1 μg per rat. On the procedure:
As used herein, “LHRH antagonist peptide” is intended to include peptides and peptide analogs which inhibit LHRH activity (i.e., has “LHRH antagonist activity”) in vivo or in vitro. Candidate LHRH antagonist peptides can be assayed, for example, in the animal model described in Corbin and Beattie, Endocrine Res. Commun. 2:1 (1975) (and see infra). In this assay, the LHRH antagonistic activity of a candidate compound is assayed by measuring the antiovulatory activity (AOA) of the compound in rats.
Anti-ovulatory activity (AOA) was measured by an in vivo assay in rats, as described in Corbin and Beattie, Endocrine Res. Commun. 2:1 (1975). In brief, female rats are injected with a candidate LHRH antagonist on the day of proestrus; in general, the candidate LHRH antagonist was dissolved in 0.1% DMSO. The ability of the candidate peptide to inhibit ovulation is measured by determining the number of rats which ovulate. A candidate peptide is considered to have LHRH antagonist qualities if it inhibits ovulation in at least 50% of the treated rats at a dose of 5 μg per rat. Preferred LHRH antagonists inhibit ovulation in at least 50% of rats at a dose of 2 μg per rat, more preferably at a dose of […], and still more preferably at a dose of 0.5 μg per rat.
On to “Ac-D-Nal^1, 4-Cl-D-Phe^2, D-Pal^3, D-Pal(CH2COOH)^6, Lys(iPr)^8, D-Ala^10-LHRH.TFA [Compound 3770]”, for which the “AO activity (AOA): rats which ovulate / rats treated” value was 6/8@1.0.
On the same count and under the same terms, the same measure for “Ac-D-Nal^1, 4-Cl-D-Phe^2, D-Pal^3, D-Pal(N—O)^6, Lys(iPr)^8, D-Ala^10-LHRH.TFA [Compound 3786]”: 4/8@1.0; for “Ac-D-Nal^1, 4-Cl-D-Phe^2, D-Pal^3, His^5D-Pal(iPr)^6, Lys(iPr)^8, D-Ala^10-LHRH.2TFA [Compound 3754]”: 5/8@1.0.
As to “Ac-D-Nal^1, 4-Cl-D-Phe^2, D-Pal^3, Lys(CNa)^5, D-Lys(CNa)^6, Lys(iPr)^8, D-Ala^10-LHRH.2TFA [Compound 3551]”, the “AO activity (AOA): rats which ovulate / rats treated” value was 6/8@1 μg.
“Ac-D-Nal^1, 4-Cl-D-Phe^2, D-Pal^3, Lys(ClNic)^5, D-Lys(ClNic)^6, Lys(iPr)^8, D-Ala^10-LHRH.2TFA [Compound 3544]”: the “AO activity (AOA): rats which ovulate / rats treated” value was 6/8@1 μg.
Take “Ac-D-Nal^1, 4-Cl-D-Phe^2, D-Pal^3, Lys(Nic)^5, D-Pal(Bzl)^6, Lys(iPr)^8, D-Ala^10-LHRH.3TFA [Compound 3547]”: the “AO activity (AOA): rats which ovulate / rats treated” value is reported as 6/8@1 μg.
For the substance “Ac-D-Nal^1, 4-Cl-D-Phe^2, D-Pal^3, Lys(ONic)^5, D-Lys(ONic)^6, Lys(iPr)^8, D-Ala^10-LHRH.TFA [Compound 3503]”, the “AO activity (AOA): rats which ovulate / rats treated” value was 6/8@1 μg.
Still for that read-out and setting: under “Ac-D-Nal^1, 4-Cl-D-Phe^2, D-Pal^3, Lys(Otac)^5, D-Lys(Otac)^6, Lys(iPr)^8, D-Ala^10-LHRH.TFA [Compound 3502]” stands 6/8@1 μg.
Consider “Ac-D-Nal^1, 4-Cl-D-Phe^2, D-Pal^3, Lys(Pyz)^5, D-Lys(Pyz)^6, Lys(iPr)^8, D-Ala^10-LHRH.TFA [Compound 3504]”, for which the “AO activity (AOA): rats which ovulate / rats treated” value is recorded as 4/8@1 μg.
With “Ac-D-Nal^1, 4-Cl-D-Phe^2, D-Pal^3, Lys(TFAc)^6, Lys(iPr)^8, D-Ala^10-LHRH.2TFA [Compound 3546]”, the “AO activity (AOA): rats which ovulate / rats treated” value is given as 6/8@1 μg.
For the substance “Ac-D-Nal^1, 4-Cl-D-Phe^2, D-Pal^3, Lys(iPr)^5, D-Lys(4HBc)^6, Lys(iPr)^8, D-Ala^10-LHRH.2TFA [Compound 3745]”, the “AO activity (AOA): rats which ovulate / rats treated” value is listed as 6/8@1.0.
As for “Ac-D-Nal^1, 4-Cl-D-Phe^2, D-Pal^3, Lys(iPr)^5, D-Trp^6, Trp^7,Orn^8, D-Ala^10-LHRH.TFA [Compound 3855]”, the “AO activity (AOA): rats which ovulate / rats treated” value is listed as 4/8@1.0.
With “Ac-D-Nal^1, 4-Cl-D-Phe^2, D-Pal^3, Lys^5, D-Pal(iPr)^6, Lys(iPr)^8, D-Ala^10-LHRH.4TFA [Compound 3548]”, the “AO activity (AOA): rats which ovulate / rats treated” value was 6/8@1 μg.
In the case of “Ac-D-Nal^1, 4-Cl-D-Phe^2, D-Pal^3, N-Me-Ala^5, D-Pal(iPr)^6, Lys(iPr)^8, D-Ala^10-LHRH.2TFA [Compound 3757]”, the “AO activity (AOA): rats which ovulate / rats treated” value is on record as 7/8@1.0.
Take “Ac-D-Nal^1, 4-Cl-D-Phe^2, D-Pal^3, N-Me-Tyr^5, D-Lys(Ac)^6, Lys(iPr)^8, D-Ala^10-LHRH.TFA [Compound 3829]”: the “AO activity (AOA): rats which ovulate / rats treated” value was 8/8@1.0.
As to “Ac-D-Nal^1, 4-Cl-D-Phe^2, D-Pal^3, Pal^5, D-Cit^6, Lys(iPr)^8, D-Ala^10-LHRH.TFA [Compound 3432]”, the “AO activity (AOA): rats which ovulate / rats treated” value is listed as 7/8@1 μg.
As for “Ac-D-Nal^1, 4-Cl-D-Phe^2, D-Pal^3, Ser^5, D-Pal(iPr)^6, Lys(iPr)^8, D-Ala^10-LHRH.2TFA [Compound 3743]”, the “AO activity (AOA): rats which ovulate / rats treated” value is listed as 8/8@1.0.
The same measure, in the same setting: the same measure for “Ac-D-Nal^1, 4-Cl-D-Phe^2, D-Pal^3,D-Lys(Mts)^6, Lys(iPr)^8, D-Ala^10-LHRH.TFA [Compound 3761]”: 7/8@1.0.
In the case of “Ac-D-Nal^1, 4-Cl-D-Phe^2, D-Phe^2, D-Pal^3, Ala^5, D-Pal(iPr)^6, Lys(iPr)^8, D-Ala^10-LHRH.2TFA [Compound 3756]”, the “AO activity (AOA): rats which ovulate / rats treated” value was 6/8@1.0.
For “Ac-D-Nal^1, 4-Cl-D-Phe^2, D-Trp^3, D-Arg^6, Lys(COCH2Br)^8, D-Ala^10-LHRH.TFA [Compound 3926]”, the “AO activity (AOA): rats which ovulate / rats treated” value is reported as 6/8@1.0.
With “Ac-D-Nal^1, 4-Cl-D-Phe^2, D-Trp^3, D-Arg^6, Met^8, D-Ala^10-LHRH.TFA [Compound 3880]”, the “AO activity (AOA): rats which ovulate / rats treated” value is 8/8@1.0.
With “Ac-D-Nal^1, 4-Cl-D-Phe^2, D-Trp^3, D-Met(S^+CH2C6H5)^6, D-Ala^10-LHRH.2TFA [Compound 3961]”, the “AO activity (AOA): rats which ovulate / rats treated” value was 3/8@1.00.
On to “Ac-D-Nal^1, 4-Cl-D-Phe^2, D-Trp^3, D-Met(S^+CH2—CH═CH2)^6, D-Ala^10-LHRH.2TFA [Compound 3984]”, for which the “AO activity (AOA): rats which ovulate / rats treated” value is listed as 3/8@1.00.
As for “Ac-D-Nal^1, 4-Cl-D-Phe^2, D-Trp^3, D-Met^6, D-Ala^10-LHRH.TFA [Compound 3881]”, the “AO activity (AOA): rats which ovulate / rats treated” value was 7/8@1.0.
Same read-out and setting: under “Ac-D-Nal^1, C^αMe-4Cl-Phe^2, D-Pal^3, N^αMe-Tyr^5, D-Pal(iPr)^6, Lys(iPr)^8, D-Ala^10-LHRH.TFA [Compound 3541]” stands 1/8@1 μg.
As for “Ac-D-Pal^1, 4-Cl-D-Phe^2, D-Pal^3, D-Pal(iPr)^6, Lys(iPr)^8, D-Ala^10-LHRH.2TFA [Compound 3804]”, the “AO activity (AOA): rats which ovulate / rats treated” value is reported as 8/8@1.0.
In the case of “Ac-D-Qal^1, 4-Cl-D-Phe^2, D-Pal^3, D-Lys(Ac)^6, Lys(iPr)^8, D-Ala^10-LHRH.TFA [Compound 3740]”, the “AO activity (AOA): rats which ovulate / rats treated” value is 6/8@1.0.
With “Ac-D-Qal^1, 4-Cl-D-Phe^2, D-Pal^3, D-Lys(Dodac)^6, Lys(iPr)^8, D-Ala^10-LHRH.TFA [Compound 3742]”, the “AO activity (AOA): rats which ovulate / rats treated” value is given as 6/8@1.0.
With “Ac-D-Qal^1, 4-Cl-D-Phe^2, D-Pal^3, D-Lys(Gulonyl)^6, Lys(iPr)^8, D-Ala^10-LHRH.TFA [Compound 3785]”, the “AO activity (AOA): rats which ovulate / rats treated” value is listed as 7/8@1.0.
“Ac-D-Qal^1, 4-Cl-D-Phe^2, D-Pal^3, D-Lys(Imdac)^6, Lys(iPr)^8, D-Ala^10-LHRH.TFA [Compound 3800]”: the “AO activity (AOA): rats which ovulate / rats treated” value was 7/8@1.0.
For the substance “Ac-D-Qal^1, 4-Cl-D-Phe^2, D-Pal^3, D-Lys(Onic)^6, Lys(iPr)^8, D-Ala^10-LHRH.TFA [Compound 3801]”, the “AO activity (AOA): rats which ovulate / rats treated” value was 8/8@1.0.
Turning to “Ac-D-Qal^1, 4-Cl-D-Phe^2, D-Pal^3, D-Lys(Otac)^6, Lys(iPr)^8, D-Ala^10-LHRH.TFA [Compound 3802]”, the “AO activity (AOA): rats which ovulate / rats treated” value is reported as 5/8@1.0.
In the case of “Ac-D-Qal^1, 4-Cl-D-Phe^2, D-Pal^3, D-Lys(Ppic)^6, Lys(iPr)^8, D-Ala^10-LHRH.TFA [Compound 3787]”, the “AO activity (AOA): rats which ovulate / rats treated” value is 7/8@1.0.
Regarding “Ac-D-Qal^1, 4-Cl-D-Phe^2, D-Pal^3, D-Lys(pGlu)^6, Lys(iPr)^8, D-Ala^10-LHRH.TFA [Compound 3723]”, the “AO activity (AOA): rats which ovulate / rats treated” value is reported as 7/8@1.0.
Consider “Ac-N^αMe-D-Nal^1, 4-Cl-D-Phe^2, D-Pal^3, D-Cit^6, Lys(iPr)^8, D-Ala^10-LHRH.TFA [Compound 3442]”, for which the “AO activity (AOA): rats which ovulate / rats treated” value is reported as 7/8@1 μg.
For “Ac-Sar^1, 4-Cl-D-Phe^2, 1-1-Nal^3, D-Pal(Bzl)^6, Lys(iPr)^8,D-Ala^10-LHRH.2TFA [Compound 3769]”, the “AO activity (AOA): rats which ovulate / rats treated” value was 6/8@1.0.
Take “Ac-Sar^1, 4-Cl-D-Phe^2, D-1-Nal^3, D-Pal(iPr)^6, Lys(iPr)^8, D-Ala^10-LHRH.2TFA [Compound 3772]”: the “AO activity (AOA): rats which ovulate / rats treated” value is 8/8@1.0.
Same read-out and setting: under “Ac-Sar^1, 4-Cl-D-Phe^2, L-1-Nal^3, D-Pal(iPr)^6, Lys(iPr)^8, D-Ala^10-LHRH.2TFA [Compound 3773]” stands 7/8@1.0.

The test is the same for the next values; noted with them: dose 2 μg per rat.
Consider “Ac-D-Nal^1, 4-Cl-D-Phe^2, D-Trp^3, D-Met(S^+CH2C6H5)^6, D-Ala^10-LHRH.2TFA [Compound 3961]”, for which the “AO activity (AOA): rats which ovulate / rats treated” value is given as 4/8@2.00.

The same test, now with this note: dose 5 μg per rat.
As for “Ac-D-Nal^1, 4-Cl-D-Phe^2, D-Pal^3, His^5, D-Arg^6, Trp^7, Orn^8, D-Ala^10-LHRH.TFA [Compound 3853]”, the “AO activity (AOA): rats which ovulate / rats treated” value is 0/8@5.0.
“Ac-D-Nal^1, 4-Cl-D-Phe^2, D-Pal^3, Lys(iPr)^5, D-His^6, Trp^7, Orn^8, D-Ala^10-LHRH.TFA [Compound 3852]”: the “AO activity (AOA): rats which ovulate / rats treated” value is reported as 8/8@5.0.
Turning to “Ac-L-(or D)-9-anthryl-Ala^1, 4-Cl-D-Phe^2, D-Pal^3, D-Cit^6-Lys(iPr)^8, D-Ala^10-LHRH.TFA [Compound 3367]”, the “AO activity (AOA): rats which ovulate / rats treated” value is 7/8@5 μg.

Still in this test, the particulars now being: dose 50 μg per rat.
Regarding Lys(COCH2Br)^8-LHRH [Compound 3942], the “AO activity (AOA): rats which ovulate / rats treated” value is 8/8@50.0.
Still for that read-out and setting: under Met(S^+Me)^8-LHRH.TFA [Compound 3941] stands 8/8@50.0.

Still in this test, the particulars now being: rat, in vivo.
In the case of “Ac-D-Nal^1, 4-Cl-D-Phe^2, D-Trp^3, D-Lys(COCH2Br)^6, D-Ala^10-LHRH.TFA [Compound 3948]”, the “AO activity (AOA), in words” value is “low activity”.
